Measurements reported in patent US20250026778A1 (TIUMBIO CO., LTD., priority 2021, published 2025).

molecular target: T1, his-galectin-3 (Homo sapiens, UniProt P17931); assay: TR-FRET assay (in vitro galectin-3 binding inhibitory activity test); settings: Table 1; compound at 20 μM; 60 nM his-galectin-3, 15 nM biotin-ASF; read-out: % Inhibitory activity (at 20 μM)
T1 construct: purchased Abcam
Procedure: TR-FRET Assay (In Vitro Galectin-3 Binding Inhibitory Activity Test)
TR-FRET assay was performed in ½ Area Plate-96 (PerkinElmer). Final concentrations of components in the assay were 60 nM his-galectin-3 (Abcam), 15 nM biotin-ASF (Axxora), 2 nM Mab anti-6×His Tb (Cisbio) and 20 nM SA-d2 (Cisbio). The reaction was performed in a buffer containing 25 mM HEPES, 100 mM NaCl, 0.005% Tween 20 and 0.05% BSA. 20 μL his-galectin-3 and 1 μL compound were mixed first, and then 20 μL biotin-ASF, 5 μL anti-His Tb and 5 μL SA-d2 were added in order. After incubation for at least 3.5 hours at RT, TR-FRET signals were measured at 615/665 nm […] wavelengths using a VICTOR Nivo (PerkinElmer). The positive control used DMSO instead of the compound, and the negative control excluded ASF-biotin. N-acetyl-D-lactosamine (LacNAc), an endogenous ligand unit of galectin-3, was evaluated together as a control substance to compare galectin-3 binding inhibitory activity.

T1 sequence (P17931 whole entry): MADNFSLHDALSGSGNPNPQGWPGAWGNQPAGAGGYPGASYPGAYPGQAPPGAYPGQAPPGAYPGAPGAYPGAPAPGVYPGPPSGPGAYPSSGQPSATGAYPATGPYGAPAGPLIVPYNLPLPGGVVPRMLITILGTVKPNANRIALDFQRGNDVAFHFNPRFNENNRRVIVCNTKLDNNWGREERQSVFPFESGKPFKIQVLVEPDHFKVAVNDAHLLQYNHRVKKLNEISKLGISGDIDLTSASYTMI

SMILES | inhibition at 20 µM [%]
O=C(O[C@@H]1[C@@H](n2cc(-c3cc(F)c(F)c(F)c3)nn2)[C@@H](O)[C@@H](CO)O[C@@]12CCCCO2)c1cccc(F)c1 [Compound A51, (2R,3R,4S,5R,6S)-3-hydroxy-2-(hydroxymethyl)-4-(4-(3,4,5-trifluorophenyl)-1H-1,2,3-triazol-1-yl)-1,7-dioxaspiro[5.5]undecan-5-yl 3-fluorobenzoate] | 25 to 50
O=C(O[C@@H]1[C@@H](n2cc(-c3cc(F)c(F)c(F)c3)nn2)[C@@H](O)[C@@H](CO)O[C@@]12CCCCO2)c1cccc(C(F)(F)F)c1 [Compound A52, (2R,3R,4S,5R,6S)-3-hydroxy-2-(hydroxymethyl)-4-(4-(3,4,5-trifluorophenyl)-1H-1,2,3-triazol-1-yl)-1,7-dioxaspiro[5.5]undecan-5-yl 3-(trifluoromethyl)benzoate] | < 25
COc1cccc(C(=O)O[C@@H]2[C@@H](n3cc(-c4cc(F)c(F)c(F)c4)nn3)[C@@H](O)[C@@H](CO)O[C@@]23CCCCO3)c1 [Compound A53, (2R,3R,4S,5R,6S)-3-hydroxy-2-(hydroxymethyl)-4-(4-(3,4,5-trifluorophenyl)-1H-1,2,3-triazol-1-yl)-1,7-dioxaspiro[5.5]undecan-5-yl 3-methoxybenzoate] | 25 to 50
N[C@@H]1CCO[C@]12O[C@H](CO)[C@H](O)[C@H](n1cc(-c3cc(F)c(F)c(F)c3)nn1)[C@H]2O [Compound A56, (4R,5S,7R,8R,9S,10R)-4-amino-7-(hydroxymethyl)-9-(4-(3,4,5-trifluorophenyl)-1H-1,2,3-triazol-1-yl)-1,6-dioxaspiro[4.5]decane-8,10-diol] | < 25
OC[C@H]1O[C@@]2(CCCCO2)[C@H](OCc2cccnc2)[C@@H](n2cc(-c3cc(F)c(F)c(F)c3)nn2)[C@H]1O [Compound A58, (2R,3R,4S,5R,6S)-2-(hydroxymethyl)-5-(pyridin-3-ylmethoxy)-4-(4-(3,4,5-trifluorophenyl)-1H-1,2,3-triazol-1-yl)-1,7-dioxaspiro[5.5]undecan-3-ol] | 25 to 50
O=C(N[C@@H]1CCO[C@]12O[C@H](CO)[C@H](O)[C@H](n1cc(-c3cc(F)c(F)c(F)c3)nn1)[C@H]2O)c1cccc(F)c1 [Compound A60, N-((4R,5S,7R,8R,9S,10R)-8,10-dihydroxy-7-(hydroxymethyl)-9-(4-(3,4,5-trifluorophenyl)-1H-1,2,3-triazol-1-yl)-1,6-dioxaspiro[4.5]decan-4-yl)-3-fluorobenzamide] | < 25
OC[C@H]1O[C@]2(OCC[C@H]2NCc2cccc(F)c2)[C@H](O)[C@@H](n2cc(-c3cc(F)c(F)c(F)c3)nn2)[C@H]1O [Compound A62, (4R,5S,7R,8R,9S,10R)-4-((3-fluorobenzyl)amino)-7-(hydroxymethyl)-9-(4-(3,4,5-trifluorophenyl)-1H-1,2,3-triazol-1-yl)-1,6-dioxaspiro[4.5]decane-8,10-diol] | 50 to 75
OC[C@H]1O[C@]2(OCC[C@H]2NCc2c(O)ccc(F)c2F)[C@H](O)[C@@H](n2cc(-c3cc(F)c(F)c(F)c3)nn2)[C@H]1O [Compound A63, (4R,5S,7R,8R,9S,10R)-4-((2,3-difluoro-6-hydroxybenzyl)amino)-7-(hydroxymethyl)-9-(4-(3,4,5-trifluorophenyl)-1H-1,2,3-triazol-1-yl)-1,6-dioxaspiro[4.5]decane-8,10-diol] | < 25
O=C(O[C@@H]1[C@@H](n2cc(-c3cc(F)c(F)c(F)c3)nn2)[C@@H](O)[C@@H](CO)O[C@@]12CCCO2)c1ccccc1Cl [Compound A70, (5S,7R,8R,9S,10R)-8-hydroxy-7-(hydroxymethyl)-9-(4-(3,4,5-trifluorophenyl)-1H-1,2,3-triazol-1-yl)-1,6-dioxaspiro[4.5]decan-10-yl 2-chlorobenzoate] | < 25

same assay, conditions: read-out: % Inhibitory activity (at 20 μM), Table 1; compound at 20 μM; 60 nM his-galectin-3, 15 nM biotin-ASF

SMILES | inhibition at 20 µM [%]
O=C(O)CO[C@@H]1[C@@H](n2cc(-c3cc(F)c(F)c(F)c3)nn2)[C@@H](O)[C@@H](CO)O[C@@]12CCCCO2 [Compound A54, 2-(((2R,3R,4S,5R,6S)-3-hydroxy-2-(hydroxymethyl)-4-(4-(3,4,5-trifluorophenyl)-1H-1,2,3-triazol-1-yl)-1,7-dioxaspiro[5.5]undecan-5-yl)oxy)acetic acid] | 25 to 50
CC(O[C@@H]1[C@@H](n2cc(-c3cc(F)c(F)c(F)c3)nn2)[C@@H](O)[C@@H](CO)O[C@@]12CCCCO2)C(=O)O (stereo partly drawn) [Compound A55, 2-(((2R,3R,4S,5R,6S)-3-hydroxy-2-(hydroxymethyl)-4-(4-(3,4,5-trifluorophenyl)-1H-1,2,3-triazol-1-yl)-1,7-dioxaspiro[5.5]undecan-5-yl)oxy)propanoic acid] | 50 to 75
O=C(O[C@@H]1[C@@H](n2cc(-c3cc(F)c(F)c(F)c3)nn2)[C@@H](O)[C@@H](CO)O[C@@]12CCCCO2)c1ccccn1 [Compound A57] | 50 to 75
Cc1ccc(S(=O)(=O)O[C@@H]2[C@@H](n3cc(-c4cc(F)c(F)c(F)c4)nn3)[C@@H](O)[C@@H](CO)O[C@@]23CCCO3)cc1 [Compound A59, (5S,7R,8R,9S,10R)-8-hydroxy-7-(hydroxymethyl)-9-(4-(3,4,5-trifluorophenyl)-1H-1,2,3-triazol-1-yl)-1,6-dioxaspiro[4.5]decan-10-yl 4-methylbenzenesulfonate] | 25 to 50
O=C(O[C@@H]1[C@@H](n2cc(-c3cc(F)c(F)c(F)c3)nn2)[C@@H](O)[C@@H](CO)O[C@@]12CCCCO2)c1cccnc1 [Compound A61, (2R,3R,4S,5R,6S)-3-hydroxy-2-(hydroxymethyl)-4-(4-(3,4,5-trifluorophenyl)-1H-1,2,3-triazol-1-yl)-1,7-dioxaspiro[5.5]undecan-5-yl nicotinate] | 25 to 50
OC[C@H]1O[C@@]2(CCCO2)[C@H](OCc2cccc(Cl)c2)[C@@H](n2cc(-c3cc(F)c(F)c(F)c3)nn2)[C@H]1O [Compound A64, (5S,7R,8R,9S,10R)-10-((3-chlorobenzyl)oxy)-7-(hydroxymethyl)-9-(4-(3,4,5-trifluorophenyl)-1H-1,2,3-triazol-1-yl)-1,6-dioxaspiro[4.5]decan-8-ol] | < 25
OC[C@H]1O[C@@]2(CCCO2)[C@H](OCc2cccc(F)c2F)[C@@H](n2cc(-c3cc(F)c(F)c(F)c3)nn2)[C@H]1O [Compound A65, (5S,7R,8R,9S,10R)-10-((2,3-difluorobenzyl)oxy)-7-(hydroxymethyl)-9-(4-(3,4,5-trifluorophenyl)-1H-1,2,3-triazol-1-yl)-1,6-dioxaspiro[4.5]decan-8-ol] | < 25
CC(O[C@@H]1[C@@H](n2cc(-c3cc(F)c(F)c(F)c3)nn2)[C@@H](O)[C@@H](CO)O[C@@]12CCCO2)C(=O)O (stereo partly drawn) [Compound A66, 2-(((5S,7R,8R,9S,10R)-8-hydroxy-7-(hydroxymethyl)-9-(4-(3,4,5-trifluorophenyl)-1H-1,2,3-triazol-1-yl)-1,6-dioxaspiro[4.5]decan-10-yl)oxy)propanoic acid] | 25 to 50
O=C(O[C@@H]1[C@@H](n2cc(-c3cc(F)c(F)c(F)c3)nn2)[C@@H](O)[C@@H](CO)O[C@@]12CCCO2)c1ccccc1F [Compound A69, (5S,7R,8R,9S,10R)-8-hydroxy-7-(hydroxymethyl)-9-(4-(3,4,5-trifluorophenyl)-1H-1,2,3-triazol-1-yl)-1,6-dioxaspiro[4.5]decan-10-yl 2-fluorobenzoate] | 25 to 50

same assay, conditions: read-out: % Inhibitory activity (at 20 μM), Table 3, found values; compound at 20 μM; 60 nM his-galectin-3, 15 nM biotin-ASF

SMILES | inhibition at 20 µM [%]
CC(O[C@@H]1[C@@H](n2cc(-c3cc(F)c(F)c(F)c3)nn2)[C@@H](O)[C@@H](CO)O[C@@]12CCCCO2)C(=O)O (stereo partly drawn) [Compound A55, 2-(((2R,3R,4S,5R,6S)-3-hydroxy-2-(hydroxymethyl)-4-(4-(3,4,5-trifluorophenyl)-1H-1,2,3-triazol-1-yl)-1,7-dioxaspiro[5.5]undecan-5-yl)oxy)propanoic acid] | 60
OC[C@H]1O[C@@]2(CCCO2)[C@H](OCc2cccc(F)c2F)[C@@H](n2cc(-c3cc(F)c(F)c(F)c3)nn2)[C@H]1O [Compound A65, (5S,7R,8R,9S,10R)-10-((2,3-difluorobenzyl)oxy)-7-(hydroxymethyl)-9-(4-(3,4,5-trifluorophenyl)-1H-1,2,3-triazol-1-yl)-1,6-dioxaspiro[4.5]decan-8-ol] | 17.3
